In one experiment the target is T1, human GLP-1R (Homo sapiens, UniProt P43220).
T1 construct: host or cells: CHO-K1
Kind of experiment: cAMP receptor activation assay, human GLP-1R cloned into CHO cells (DiscoverX LeadHunter / cAMP Hunter). It is filed as cell-based. Conditions: for Selectivity Ratio GLP-1R vs GCGR: SR = GCGR EC50/GLP-1 EC50, 0.1% BSA.

The target of another experiment is GCGR (Homo sapiens, UniProt P47871). Kind of experiment: cAMP receptor activation assay, human GCGR cloned into CHO cells (DiscoverX LeadHunter / cAMP Hunter). The format is cell-based. On the set-up: host or cells: CHO-K1.
GCGR, sequence (P47871 26-477): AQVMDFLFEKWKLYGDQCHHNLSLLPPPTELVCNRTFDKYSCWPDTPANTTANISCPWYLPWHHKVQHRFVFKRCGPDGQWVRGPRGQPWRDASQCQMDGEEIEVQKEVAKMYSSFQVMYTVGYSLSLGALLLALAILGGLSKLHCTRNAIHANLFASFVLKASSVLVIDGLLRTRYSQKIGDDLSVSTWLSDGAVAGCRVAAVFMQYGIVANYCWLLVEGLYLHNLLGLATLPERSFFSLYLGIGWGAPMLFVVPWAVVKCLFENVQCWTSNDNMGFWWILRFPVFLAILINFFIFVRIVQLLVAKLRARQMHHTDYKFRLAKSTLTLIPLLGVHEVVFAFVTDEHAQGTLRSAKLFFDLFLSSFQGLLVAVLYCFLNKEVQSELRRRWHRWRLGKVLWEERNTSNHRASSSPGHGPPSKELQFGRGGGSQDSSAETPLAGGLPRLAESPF
[1] abbreviates: cAMP, CHO cells, 0.1% BSA containing buffers, read-out: pEC50 (SE) huGCGR (converted).
The mark [2] stands for this setting: cAMP, CHO cells, 0.1% BSA containing buffers, read-out: pEC50 (SE) hu GLP-1 (converted).

Where two headings read alike, the source gives them in different places.

T1 sequence (P43220 24-463): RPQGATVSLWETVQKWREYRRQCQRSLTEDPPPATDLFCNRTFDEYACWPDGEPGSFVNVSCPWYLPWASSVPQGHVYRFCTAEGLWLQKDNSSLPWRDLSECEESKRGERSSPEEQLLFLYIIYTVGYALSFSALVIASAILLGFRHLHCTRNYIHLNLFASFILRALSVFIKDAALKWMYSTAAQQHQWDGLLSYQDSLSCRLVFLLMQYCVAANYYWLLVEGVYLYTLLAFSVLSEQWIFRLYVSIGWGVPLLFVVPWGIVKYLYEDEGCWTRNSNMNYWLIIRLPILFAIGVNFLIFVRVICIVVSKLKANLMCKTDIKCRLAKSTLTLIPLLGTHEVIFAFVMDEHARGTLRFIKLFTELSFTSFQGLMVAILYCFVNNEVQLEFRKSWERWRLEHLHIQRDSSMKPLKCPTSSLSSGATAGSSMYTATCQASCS
Method for GCGR: (§1) Cellular assays were carried out using standard cellular assays (DiscoveRx, LeadHunter assays) using readout of cAMP stimulation or arrestin activation. Compounds were weighed precisely in an amount of approximately 1 mg and shipped to DiscoverX (Fremont, Calif.) for dilution and assay. […] Assays were carried out in the presence of 0.1% ovalbumin. […] Use of 0.1% ovalbumin can avoid this problem.
(§2) Assays were carried out in the presence of 0.1% ovalbumin. […] Use of 0.1% ovalbumin can avoid this problem.
(§3) Receptor activation assays were performed at DiscoverX laboratories (Fremont, Calif.) using human GLP-1R and GCGR cloned into Chinese Hamster Ovary (CHO) cells (LeadHunter Discovery Services; assay product 86-0007D cAMP Hunter™ using huGLP1R and huGCGR; whole cell cAMP accumulation assays; cell lines used were cAMP Hunter™ CHO-K1 GCGR Gs Cell Line, catalog 95-0042C2 and cAMP Hunter™ CHO-K1 GLP1 Gs Cell Line, catalog 95-0062C2; readout of accumulated cAMP was made using readout HitHunter cAMP XS+ assay). Cell lines are maintained at DiscoverX and were incubated with test agents for 30 m at 37° C. for accumulation of cAMP. […] Results described herein are from single assays performed on cells in duplicate and data were replotted in Prism 5 to provide pEC50 (SE) data.
(§4) In vitro data are presented as pEC50 (SE) determined in Prism 5 by nonlinear regression analysis of the raw fluorescence data normalized by corresponding response to internal standards (see Supporting Information for data plots).
Method for human GLP-1R: as §1, §2, §3, §4

Consider `CC[C@H](C)[C@H](NC(=O)[C@H](Cc1ccccc1)NC(=O)[C@H](CCC(=O)O)NC(=O)[C@@H]1CCCCNC(=O)CC[C@H](NC(=O)[C@H](CC(=O)O)NC(=O)[C@H](CC(C)C)NC(=O)[C@H](Cc2ccc(O)cc2)NC(=O)[C@H](CCCCN)NC(=O)[C@H](CO)NC(=O)[C@H](Cc2ccc(O)cc2)NC(=O)[C@H](CC(=O)O)NC(=O)[C@H](CO)NC(=O)[C@@H](NC(=O)[C@H](Cc2ccccc2)NC(=O)[C@@H](NC(=O)CNC(=O)[C@H](CCC(N)=O)NC(=O)C(C)(C)NC(=O)[C@@H](N)Cc2c[nH]cn2)[C@@H](C)O)[C@@H](C)O)C(=O)N[C@@H](CCC(N)=O)C(=O)N[C@@H](C)C(=O)N[C@@H](C)C(=O)N1)C(=O)N[C@@H](CCCCNC(=O)[C@H]1O[C@@H](OCCCCCCCCCCCCCCCCCC(=O)O)[C@H](O)[C@@H](O)[C@@H]1O)C(=O)N[C@@H](Cc1c[nH]c2ccccc12)C(=O)N[C@@H](CC(C)C)C(=O)N[C@@H](CC(C)C)C(=O)N[C@@H](CCC(N)=O)C(=O)N[C@H](C(N)=O)[C@@H](C)O` [EU-A1872], for which the EC50 at human GLP-1R (read-out: EC50 cAMP GLP-1 R (pM) 0.1% BSA, Table 5, 0.1% BSA) is 1270 pM; at human GLP-1R (read-out: EC50 cAMP GLP-1 R (pM) 0.1% BSA, Table 6, 0.1% BSA) it was 1270 pM; at GCGR (read-out: EC50 cAMP glucagon R (pM) 0.1% Ovalb, Table 5, 0.1% ovalbumin), 86 pM.
Take `CCCCCCCCCCCCO[C@@H]1O[C@H](C(=O)NCCCC[C@H](NC(=O)[C@@H](NC(=O)[C@H](Cc2ccccc2)NC(=O)[C@H](CCC(=O)O)NC(=O)[C@@H]2CCCCNC(=O)CC[C@H](NC(=O)[C@H](CC(=O)O)NC(=O)[C@H](CC(C)C)NC(=O)[C@H](Cc3ccc(O)cc3)NC(=O)[C@H](CCCCN)NC(=O)[C@H](CO)NC(=O)[C@H](Cc3ccc(O)cc3)NC(=O)[C@H](CC(=O)O)NC(=O)[C@H](CO)NC(=O)[C@@H](NC(=O)[C@H](Cc3ccccc3)NC(=O)[C@@H](NC(=O)CNC(=O)[C@H](CCC(N)=O)NC(=O)C(C)(C)NC(=O)[C@@H](N)Cc3c[nH]cn3)[C@@H](C)O)[C@@H](C)O)C(=O)N[C@@H](CCC(N)=O)C(=O)N[C@@H](C)C(=O)N[C@@H](C)C(=O)N2)[C@@H](C)CC)C(=O)N[C@@H](Cc2c[nH]c3ccccc23)C(=O)N[C@@H](CC(C)C)C(=O)N[C@@H](CC(C)C)C(=O)N[C@@H](CCC(N)=O)C(=O)N[C@H](C(N)=O)[C@@H](C)O)[C@@H](O)[C@H](O)[C@H]1O` [analogue 3]: the EC50 on GCGR (setting [1]) is 28.8 pM.
In the case of `CCCCCCCCO[C@@H]1O[C@H](C(=O)NCCCC[C@H](NC(=O)[C@@H](NC(=O)[C@H](Cc2ccccc2)NC(=O)[C@H](CCC(=O)O)NC(=O)[C@@H]2CCCCNC(=O)CC[C@H](NC(=O)[C@H](CC(=O)O)NC(=O)[C@H](CC(C)C)NC(=O)[C@H](Cc3ccc(O)cc3)NC(=O)[C@H](CCCCN)NC(=O)[C@H](CO)NC(=O)[C@H](Cc3ccc(O)cc3)NC(=O)[C@H](CC(=O)O)NC(=O)[C@H](CO)NC(=O)[C@@H](NC(=O)[C@H](Cc3ccccc3)NC(=O)[C@@H](NC(=O)CNC(=O)[C@H](CCC(N)=O)NC(=O)C(C)(C)NC(=O)[C@@H](N)Cc3c[nH]cn3)[C@@H](C)O)[C@@H](C)O)C(=O)N[C@@H](CCC(N)=O)C(=O)N[C@@H](C)C(=O)N[C@@H](C)C(=O)N2)[C@@H](C)CC)C(=O)N[C@@H](Cc2c[nH]c3ccccc23)C(=O)N[C@@H](CC(C)C)C(=O)N[C@@H](CC(C)C)C(=O)N[C@@H](CCC(N)=O)C(=O)N[C@H](C(N)=O)[C@@H](C)O)[C@@H](O)[C@H](O)[C@H]1O` [analogue 1], the “Selectivity Ratio GLP-1R vs GCGR” value on human GLP-1R was 3. Besides, the EC50 at human GLP-1R (cAMP, CHO cells, 0.1% BSA containing buffers, read-out: EC50 hGLP-1R) is 8 pM; on human GLP-1R (setting [2]), 8.51 pM; on GCGR (setting [1]), 20 pM.
Turning to `CC[C@H](C)[C@H](NC(=O)[C@H](Cc1ccccc1)NC(=O)[C@H](CCC(=O)O)NC(=O)[C@@H]1CCCCNC(=O)CC[C@H](NC(=O)[C@H](CC(=O)O)NC(=O)[C@H](CC(C)C)NC(=O)[C@H](Cc2ccc(O)cc2)NC(=O)[C@H](CCCCN)NC(=O)[C@H](CO)NC(=O)[C@H](Cc2ccc(O)cc2)NC(=O)[C@H](CC(=O)O)NC(=O)[C@H](CO)NC(=O)[C@@H](NC(=O)[C@H](Cc2ccccc2)NC(=O)[C@@H](NC(=O)CNC(=O)[C@H](CCC(N)=O)NC(=O)C(C)(C)NC(=O)[C@@H](N)Cc2c[nH]cn2)[C@@H](C)O)[C@@H](C)O)C(=O)N[C@@H](CCC(N)=O)C(=O)N[C@@H](C)C(=O)N[C@@H](C)C(=O)N1)C(=O)N[C@@H](CCCCNC(=O)[C@H]1O[C@@H](OCCCCCCCCCCCCCCCC(=O)O)[C@H](O)[C@@H](O)[C@@H]1O)C(=O)N[C@@H](Cc1c[nH]c2ccccc12)C(=O)N[C@@H](CC(C)C)C(=O)N[C@@H](CC(C)C)C(=O)N[C@@H](CCC(N)=O)C(=O)N[C@H](C(N)=O)[C@@H](C)O` [analogue 15], the EC50 at human GLP-1R (cAMP, CHO cells, 0.1% OVA containing buffers, read-out: pEC50 (SE) hu GLP-1 (converted)) is 38 pM; on GCGR (cAMP, CHO cells, 0.1% OVA containing buffers, read-out: EC50 hGCGR), 65 pM.
As to `CCCCCCCCCCCCCCO[C@@H]1O[C@H](C(=O)N[C@@H](CCC(=O)NCCCC[C@H](NC(=O)[C@@H](NC(=O)[C@H](Cc2ccccc2)NC(=O)[C@H](CCC(=O)O)NC(=O)[C@@H]2CCCCNC(=O)CC[C@H](NC(=O)[C@H](CC(=O)O)NC(=O)[C@H](CC(C)C)NC(=O)[C@H](Cc3ccc(O)cc3)NC(=O)[C@H](CCCCN)NC(=O)[C@H](CO)NC(=O)[C@H](Cc3ccc(O)cc3)NC(=O)[C@H](CC(=O)O)NC(=O)[C@H](CO)NC(=O)[C@@H](NC(=O)[C@H](Cc3ccccc3)NC(=O)[C@@H](NC(=O)CNC(=O)[C@H](CCC(N)=O)NC(=O)C(C)(C)NC(=O)[C@@H](N)Cc3c[nH]cn3)[C@@H](C)O)[C@@H](C)O)C(=O)N[C@@H](CCC(N)=O)C(=O)N[C@@H](C)C(=O)N[C@@H](C)C(=O)N2)[C@@H](C)CC)C(=O)N[C@@H](Cc2c[nH]c3ccccc23)C(=O)N[C@@H](CC(C)C)C(=O)N[C@@H](CC(C)C)C(=O)N[C@@H](CCC(N)=O)C(=O)N[C@H](C(N)=O)[C@@H](C)O)C(=O)O)[C@@H](O)[C@H](O)[C@H]1O` [analogue 14], at human GLP-1R, the “Selectivity Ratio GLP-1R vs GCGR” value came to 2. On human GLP-1R (setting [2]), the EC50 is 42.7 pM. In addition, the “GCGR activation potency (vs 4)” value on GCGR is “significantly weakened GCGR activation potency”.
On to `CCCCCCCCCCCCCCCCCCO[C@@H]1O[C@H](C(=O)NCCCC[C@H](NC(=O)[C@@H](NC(=O)[C@H](Cc2ccccc2)NC(=O)[C@H](CCC(=O)O)NC(=O)[C@@H]2CCCCNC(=O)CC[C@H](NC(=O)[C@H](CC(=O)O)NC(=O)[C@H](CC(C)C)NC(=O)[C@H](Cc3ccc(O)cc3)NC(=O)[C@H](CCCCN)NC(=O)[C@H](CO)NC(=O)[C@H](Cc3ccc(O)cc3)NC(=O)[C@H](CC(=O)O)NC(=O)[C@H](CO)NC(=O)[C@@H](NC(=O)[C@H](Cc3ccccc3)NC(=O)[C@@H](NC(=O)CNC(=O)[C@H](CCC(N)=O)NC(=O)C(C)(C)NC(=O)[C@@H](N)Cc3c[nH]cn3)[C@@H](C)O)[C@@H](C)O)C(=O)N[C@@H](CCC(N)=O)C(=O)N[C@@H](C)C(=O)N[C@@H](C)C(=O)N2)[C@@H](C)CC)C(=O)N[C@@H](Cc2c[nH]c3ccccc23)C(=O)N[C@@H](CC(C)C)C(=O)N[C@@H](CC(C)C)C(=O)N[C@@H](CCC(N)=O)C(=O)N[C@H](C(N)=O)[C@@H](C)O)[C@@H](O)[C@H](O)[C@H]1O` [analogue 6], for which the “Selectivity Ratio GLP-1R vs GCGR” value on human GLP-1R is listed as 17. Besides, on GCGR, the “Selectivity Ratio (SR=GCGR EC50/GLP-1 EC50)” value was 17. At GCGR (text on Table 17, read-out: EC50 values for GCGR), the EC50 worked out at 884 pM.
As to exendin-4 [reference compound], on human GLP-1R, the “Fold Improvement GLP-1R” value was found to be 1 and the “fold improvement on replacing BSA (0.1%) with OVA (0.1%)” value is given as “negligible”.

The record behind these values is patent US20210290732A1, “GLP-1R and GCGR Agonists, Formulations, and Methods of Use” (Spitfire Pharma LLC, priority 2020, published 2021).
